Source: patent US20200297820A1, “STIMULATION OF HUMAN MEIBOMIAN GLAND FUNCTION” (The Schepens Eye Research Institute, Inc., priority 2013, published 2020)
Entries after “also recorded” stand apart in the source; their conditions may differ. Where two headings read alike, the source gives them in different places.

Columns and labels:
Format in all cases: cell-based
[1] = tested on: human meibomian gland epithelial cells; test: Immunoblot of SREBP-1 and cyclins B1, D1; conditions: for amount of the precursor form of SREBP-1 protein: 10 nM, 6 days, differentiation media
Protocol: The disclosure turns now to sodium dodecyl sulfate-polyacrylamide gel, electrophoresis, and immunoblots. Cells were directly lysed in Laemmli buffer supplemented with 1% protease inhibitor cocktail (Sigma-Aldrich) and 5% β-mercaptoethanol (Sigma-Aldrich). Lysates were heated at 95° C. for 10 minutes, separated by sodium dodecyl sulfate-polyacrylamide gel electrophoresis on 10% Tris-glycine precast gels, and transferred to polyvinylidene difluoride membranes. Rabbit or mouse antibodies used were specific for phosphorylated Akt (p-Akt), pan-Akt, p-FoxO1, FoxO1, p-JAK2, JAK2, and β-actin; for p-ERK, ERK-2, STAT5, and the precursor form of SREBP-1; and for p-STAT5. Membranes were blocked with 5% bovine serum albumin in Tris-buffered saline containing 0.01% polysorbate 20. All primary antibodies were diluted to 1:1000 in blocking buffer except for p-Akt (1:4000), p-ERK (1:2000), ERK-2 (1:4000), SREBP-1 (1:200), and β-actin (1:10 000). Horseradish peroxidase-conjugated secondary antibodies were goat anti-rabbit IgG and Fc-specific goat anti-mouse IgG diluted to 1:5000. Proteins were visualized with enhanced chemiluminescent substrate or with ultrasensitive chemiluminescent substrate. Densitometry was performed with image-processing software.
Turning to the influence of IGF-1 and GH on SREBP-1 expression and lipid accumulation, the experiments examined whether IGF-1 stimulates SREBP-1 expression and lipid accumulation in human meibomian gland epithelial cells. Cells were cultured for 6 days in differentiation media with IGF-1 and then processed the cells for protein and histologic analysis.
FIGS. 11a, 11b, 11c, and 11d illustrate the effect of IGF-1 on sterol regulatory element-binding protein (SREBP-1) expression and lipid accumulation in human meibomian gland epithelial cells. Cells were exposed to IGF-1 or growth hormone (GH) for 6 days in differentiation media and then processed for the analysis of the precursor form of SREBP-1 protein. […] represents 4′,6-diamidino-2-phenylindole nuclear staining. The SREBP-1 densitometry, normalized to that of β-actin, and neutral lipid staining fluorescence intensity (6 field views per treatment condition) were quantified by using image-processing software. These experiments were repeated at least 3 times with similar results. ANOVA indicates analysis of variance; AU, arbitrary units. Whiskers represent SEM.
FIGS. 15a, 15b, 15c, and 15d illustrate the effect of IGF-1, AZM, and IFG-1+AZM combination on the expression of SREBP-1, cyclins B1, and D1. Cells were incubated with vehicle, 10 nM IGF-1, 10 μg/mL AZM, or IGF-1+AZM combination for 5 days. Cell lysates were evaluated on immunoblots for precursor and mature forms of SREBP-1, cyclins B1 and D1. FIG. 15a quantifies the protein band intensities using ImageJ. […] These experiments were repeated at least three times with similar results.

[2] = tested on: immortalized human meibomian gland epithelial cells; test: Cell proliferation, cells counted with a hemocytometer; conditions: for cell proliferation: 10 nM IGF-1 or 10 μg/mL AZM, 13 days, P<0.0001; for cell number: 10 nM
Protocol: (§1) As an example of these experiments, immortalized human meibomian gland epithelial cells were cultured in the presence or absence of 10% fetal bovine serum. Cells were treated with an ethanol vehicle or azithromycin (10 μg/ml; Santa Cruz Biotechnology) for varying time periods. Cellular morphological appearance was recorded, cells were counted with a hemocytometer, and lipid accumulation was assessed by staining the cells with LipidTOX green neutral lipid stain (Invitrogen, Grand Island, N.Y.), according to reported methods. Staining fluorescent intensities were quantified by using ImageJ (http://rsbweb.nih.gov/ij/index.html). Statistical analyses were performed with Student's t-test (two-tailed, unpaired).
(§2) Immortalized human meibomian gland epithelial cells (IHMGECs; passages 20-22) were cultured in the presence or absence of 10% fetal bovine serum. Cells were treated with the ethanol vehicle or azithromycin (10 μg/mL) for varying periods. Cellular morphological appearance was recorded, cells were counted with a hemocytometer, and lipid accumulation was assessed by staining cells with LipidTOX green neutral lipid stain (Invitrogen Corp). Staining fluorescent intensities were quantified using ImageJ software (http://rsbweb.nih.gov/ij/index.html). Statistical analyses were performed with t test (2-tailed, unpaired).
(§3) Regarding cell proliferation assay, the human meibomian gland epithelial cells and LNCaP cells were cultured in 12-well plates in designated media and then exposed to IGF-1 or GH for defined periods. At experimental termination, cells were trypsinized and counted with a hemocytometer.
(§4) FIGS. 10a, 10b, and 10c illustrate the influence of IGF-1 on the proliferation of human meibomian gland epithelial cells. Cells were cultured (100,000 cells/well in 12-well plates, 3 wells per group) in basal, proliferating, and/or differentiating media and treated with IGF-I for 2 to 6 days. […] P values are for post hoc comparison compared with the control value. […] ANOVA indicates analysis of variance; EGF-BPE, epidermal growth factor-bovine pituitary extract; KSFM, keratinocyte serum-free medium. All comparisons are with control value. Whiskers mark SEM. aP<0.05 compared with the control value, post hoc test.

[3] = tested on: immortalized human meibomian gland epithelial cells; test: LipidTOX green neutral lipid staining (lipid accumulation); conditions: for accumulation of lipid: days 1 to 7; for accumulation of neutral lipids: 10 nM, 6 days, differentiation media
Protocol: as §1, §2
Cell numbers were enumerated with a hemocytometer. Cellular lipid and lysosome accumulation were examined by staining cells with: Filipin III (a fluorometric probe for identifying unesterified cholesterol), LipidTOX green neutral lipid stain, and LysoTracker® Red DND-99 (a fluorescent technique designed for labeling acidic organelles such as lysosomes). Lysosomal lamellar bodies were identified by transmission electron microscopy. In brief, after culture and treatment on 24 mm polycarbonate membrane transwell inserts (0.4 μm pore size), cells were fixed in a solution of 2% formaldehyde+2.5% glutaraldehyde, in 0.08 M sodium cacodylate buffer, pH 7.4, post-fixed with 2% osmium tetroxide in 0.1 M sodium cacodylate buffer, and stained en bloc with 2% aqueousuranyl acetate. […] Cross sections (1 μM) were stained with 1% toluidine blue in 1% sodium tetraborate solution. Ultra-thin sections (60-90 nm) were imaged with a transmission electron microscope interfaced with a digital CCD camera. For biochemical assessments, cellular lipids were extracted with chloroform and methanol from samples with the same amount of protein. Lipids were then evaluated with high-performance thin-layer chromatography. With regard to the staining results, three Filipin, five LipidTox and four LysoTracker studies were conducted, and each experiment was performed in duplicate. Four random pictures were taken of each group, and four random areas were selected for the measurement of fluorescent intensities. The HPTLC experiments were performed in duplicate more than three times. Image data were quantified with ImageJ (http://rsbweb.nib.gov/ij/index.html). Electron microscopic analyses were performed in triplicate.
The experiment included green neutral lipid staining. Immortalized human meibomian gland epithelial cells were cultured in slides treated to facilitate cell growth in FBS-containing medium in the presence or absence of IGF-1, anti-IGF-1R, and/or GH. Media were replaced every 2 to 3 days for a total of 6 days, at which time cells were washed and fixed in 4% paraformaldehyde for 30 minutes. After additional washes, cells were stained with green neutral lipid stain in a humid chamber for 30 minutes. Coverslips were mounted on slides with an antifade reagent that contains 4′,6-diamidino-2-phenylindole nuclear stain and permitted to dry overnight before imaging with a microscope. Fluorescence intensity was quantified using image-processing software.

LNCaP cells = test: Proliferation of LNCaP control cells; conditions: 1% FBS, 2 days
Protocol: as §3, §4

[4] = 10 nM IGF-1 or 10 μg/mL AZM, 5 days
[5] = azithromycin 10 μg/ml vs vehicle

Compound	expression of mature SREBP-1 [1, 4]	expression of SREBP-1 protein ([1]; azithromycin 10 μg/ml)	cell proliferation [2]	proliferation ([2]; azithromycin 10 μg/ml, absence and presence of serum, days 1 to 7)	fluorescence intensity of LipidTOX staining ([3]; 10 μg/mL, 13 days, two-way ANOVA P<0.0001)	accumulation of neutral lipids (LipidTOX) ([3]; 10 μg/ml, 5 days)	time to marked increase of number, size and staining intensity of intracellular lipid-containing vesicles [3, 5]	accumulation of lipid [3, 5]	accumulation of lipid ([3]; azithromycin 10 μg/ml vs vehicle, listed as azithromycin)	amount of the precursor form of SREBP-1 protein [1]	proliferation ([2]; any of the media, doses 0.1 to 100 nM)	proliferation (LNCaP cells)	accumulation of neutral lipids [3]	expression of pre-SREBP-1 ([1]; 10 nM IGF-1, 5 days)	expression of cyclin B1 [1, 4]	expression of SREBP-1 protein ([1]; IGF-1 10 nM, alone or with GH and/or DHT)	proliferation [2]	cell number ([2]; 10% FBS-containing medium, 2 to 6 days)	cell number ([2]; keratinocyte serum-free medium alone or with EGF-BPE, 2 days)
CC[C@H]1OC(=O)[C@H](C)[C@@H](O[C@H]2C[C@@](C)(OC)[C@@H](O)[C@H](C)O2)[C@H](C)[C@@H](O[C@@H]2O[C@H](C)C[C@H](N(C)C)[C@H]2O)[C@](C)(O)C[C@@H](C)CN(C)[C@H](C)[C@@H](O)[C@]1(C)O [Azithromycin]	significant effect	increased expression	significant but opposite effect	generally reduced the proliferation	significant effect	significantly stimulates the accumulation	≤ 3 days	striking, time-dependent accumulation of lipid	time-dependent accumulation of lipids; also recorded: striking, time-dependent accumulation of lipid										
GH: human growth hormone										not duplicated	no influence on the proliferation	increased	not duplicated						
IGF-1: recombinant human insulin-like growth factor 1	significantly affected		significant but opposite effect							rise in the amount of the precursor form of SREBP-1 protein		increased	increase in the accumulation of neutral lipids	significantly affected	significantly affected	significant increase in the expression of SREBP-1 protein	increases the proliferation	increase in cell number	not under basal conditions
